In brackets after ≈: the same amount, converted by molar mass.
Key:
Staphylococcus aureus [1] = test: Antibacterial activity against methicillin-resistant Staphylococcus aureus 757 after 20 hrs by CLSI-based microdilution method; assay type: functional; settings: Staphylococcus aureus, 757, 20 h
Staphylococcus aureus [2] = test: Antibacterial activity against methicillin-resistant Staphylococcus aureus 2011 after 20 hrs by CLSI-based microdilution method; assay type: functional; settings: Staphylococcus aureus, 2011, 20 h
Enterococcus faecium = test: Antibacterial activity against […] Enterococcus faecium 1092 after 20 hrs by CLSI-based microdilution method; assay type: functional; settings: Enterococcus faecium, 1092, 20 h
Escherichia coli [3] = test: Antibacterial activity against Escherichia coli 2271 after 20 hrs by CLSI-based microdilution method; assay type: functional; settings: Escherichia coli, 2271, 20 h
Escherichia coli [4] = test: Antibacterial activity against Escherichia coli 121 after 20 hrs by CLSI-based microdilution method; assay type: functional; settings: O157:H7 str. 121, 20 h
Streptococcus pneumoniae [5] = test: Antibacterial activity against Streptococcus pneumoniae 911 after 20 hrs by CLSI-based microdilution method; assay type: functional; settings: Streptococcus pneumoniae, 911, 20 h
Haemophilus influenzae = test: Antibacterial activity against Haemophilus influenzae 1244 after 20 hrs by CLSI-based microdilution method; assay type: functional; settings: Haemophilus influenzae, 1244, 20 h
Staphylococcus aureus [6] = test: Antibacterial activity against methicillin-resistant Staphylococcus aureus; assay type: functional
Klebsiella pneumoniae [7] = test: Antibacterial activity against Klebsiella pneumoniae; assay type: functional
Pseudomonas aeruginosa [8] = test: Antibacterial activity against Pseudomonas aeruginosa; assay type: functional
Pseudomonas aeruginosa [9] = test: Antibacterial activity against Pseudomonas aeruginosa KW799 after 20 hrs under iron-rich medium by broth microdilution method; assay type: functional; settings: KW799, 20 h
Pseudomonas aeruginosa [10] = test: Antibacterial activity against Pseudomonas aeruginosa PAO1 after 20 hrs under iron-deficient medium by broth microdilution method; assay type: functional; settings: PAO1, 20 h
Pseudomonas aeruginosa [11] = test: Antibacterial activity against Pseudomonas aeruginosa KW799/61 after 20 hrs under iron-rich medium by broth microdilution method; assay type: functional; settings: KW799/61, 20 h
Pseudomonas aeruginosa [12] = test: Antibacterial activity against Pseudomonas aeruginosa KW799/61 after 20 hrs under iron-deficient medium by broth microdilution method; assay type: functional; settings: KW799/61, 20 h
Pseudomonas aeruginosa [13] = test: Antibacterial activity against Pseudomonas aeruginosa PAO1 after 20 hrs under iron-rich medium by broth microdilution method; assay type: functional; settings: PAO1, 20 h
Pseudomonas aeruginosa [14] = test: Antibacterial activity against Pseudomonas aeruginosa KW799 after 20 hrs under iron-deficient medium by broth microdilution method; assay type: functional; settings: KW799, 20 h
Pseudomonas aeruginosa [15] = test: Antibacterial activity against Pseudomonas aeruginosa PA4 after 20 hrs under iron-rich medium by broth microdilution method; assay type: functional; settings: PA4, 20 h
Pseudomonas aeruginosa [16] = test: Antibacterial activity against Pseudomonas aeruginosa PA4 after 20 hrs under iron-deficient medium by broth microdilution method; assay type: functional; settings: PA4, 20 h
Staphylococcus aureus [17] = test: Antibacterial activity against Staphylococcus aureus ATCC 29213 by broth microdilution method; assay type: functional
Acinetobacter baumannii [18] = test: Antibacterial activity against Acinetobacter baumannii ATCC 19606 by broth microdilution method; assay type: functional; settings: ATCC 19606 = CIP 70.34 = JCM 6841
Staphylococcus aureus [19] = test: Antibacterial activity against Staphylococcus aureus BAA-977 expressing iermA by broth microdilution method; assay type: functional
Staphylococcus aureus [20] = test: Antibacterial activity against methicillin-resistant Staphylococcus aureus NRS384 expressing MsrA by broth microdilution method; assay type: functional
Enterococcus faecalis [21] = test: Antibacterial activity against Enterococcus faecalis ATCC 29212 by broth microdilution method; assay type: functional
Enterococcus faecalis [22] = test: Antibacterial activity against Enterococcus faecalis UNT-047 expressing ermB by broth microdilution method; assay type: functional
Streptococcus pneumoniae [23] = test: Antibacterial activity against Streptococcus pneumoniae ATCC 49619 by broth microdilution method; assay type: functional
Streptococcus pneumoniae [24] = test: Antibacterial activity against Streptococcus pneumoniae UNT-042 expressing ermB/mefA by broth microdilution method; assay type: functional
Pseudomonas aeruginosa [25] = test: Antibacterial activity against Pseudomonas aeruginosa ATCC 27853 by broth microdilution method; assay type: functional
[26] = Drug accumulation in Escherichia coli MG1655 assessed per 10^12 CFU at 50 uM incubated for 10 mins under shaking condition by LC-MS/MS analysis; assay type: ADME, K-12 substr. MG1655
Staphylococcus aureus [27] = test: Antibacterial activity against Staphylococcus aureus NRS3 by broth microdilution method; assay type: functional
Escherichia coli [28] = test: Antibacterial activity against Escherichia coli MG1655 by broth microdilution method; assay type: functional; settings: K-12 substr. MG1655
Escherichia coli [29] = test: Antibacterial activity against Escherichia coli ELZ4017 by broth microdilution method; assay type: functional
Escherichia coli [30] = test: Antibacterial activity against Escherichia coli ELZ4045 by broth microdilution method; assay type: functional
Escherichia coli [31] = test: Antibacterial activity against Escherichia coli ELZ4346 by broth microdilution method; assay type: functional
Escherichia coli [32] = test: Antibacterial activity against Escherichia coli ELZ4081 by broth microdilution method; assay type: functional
Escherichia coli [33] = test: Antibacterial activity against Escherichia coli ELZ4072 by broth microdilution method; assay type: functional
Escherichia coli [34] = test: Antibacterial activity against Escherichia coli ELZ4239 by broth microdilution method; assay type: functional
Escherichia coli [35] = test: Antibacterial activity against Escherichia coli BAA-2469 by broth microdilution method; assay type: functional
Klebsiella pneumoniae [36] = test: Antibacterial activity against Klebsiella pneumoniae ATCC 27736 by broth microdilution method; assay type: functional
Klebsiella pneumoniae [37] = test: Antibacterial activity against Klebsiella pneumoniae 4-38 by broth microdilution method; assay type: functional
Klebsiella pneumoniae [38] = test: Antibacterial activity against Klebsiella pneumoniae 6-73 by broth microdilution method; assay type: functional
Enterobacter cloacae [39] = test: Antibacterial activity against Enterobacter cloacae ATCC 29893 by broth microdilution method; assay type: functional
Enterobacter cloacae [40] = test: Antibacterial activity against Enterobacter cloacae 1-60 by broth microdilution method; assay type: functional
Enterobacter cloacae [41] = test: Antibacterial activity against Enterobacter cloacae 3-46 by broth microdilution method; assay type: functional
Acinetobacter baumannii [42] = test: Antibacterial activity against Acinetobacter baumannii KB304 by broth microdilution method; assay type: functional
Acinetobacter baumannii [43] = test: Antibacterial activity against Acinetobacter baumannii KB349 by broth microdilution method; assay type: functional
Acinetobacter baumannii [44] = test: Antibacterial activity against Acinetobacter baumannii WO22 by broth microdilution method; assay type: functional
Acinetobacter baumannii [45] = test: Antibacterial activity against Acinetobacter baumannii BD335 by broth microdilution method; assay type: functional
Acinetobacter baumannii [46] = test: Antibacterial activity against Acinetobacter baumannii IF101 by broth microdilution method; assay type: functional
Pseudomonas aeruginosa [47] = test: Antibacterial activity against Pseudomonas aeruginosa PAO1 by broth microdilution method; assay type: functional
Pseudomonas aeruginosa [48] = test: Growth inhibition of Pseudomonas aeruginosa PA14 after 24 hrs; assay type: functional, organism-based; settings: PA14, 24 h

CN(C)[C@@H]1C(O)=C(C(N)=O)C(=O)[C@@]2(O)C(O)=C3C(=O)c4c(O)cccc4[C@H](c4ccccc4)[C@H]3C[C@@H]12
MIC (Staphylococcus aureus [1]): 0.5 µg/mL (≈ 1.02 µM)
MIC (Staphylococcus aureus [2]): 0.12 µg/mL (≈ 0.245 µM)
MIC (Enterococcus faecium): 0.5 µg/mL (≈ 1.02 µM)
MIC (Escherichia coli [3]): > 16 µg/mL
MIC (Escherichia coli [4]): 8 µg/mL (≈ 16.3 µM)
MIC (Streptococcus pneumoniae [5]): < 0.06 µg/mL
MIC (Haemophilus influenzae): 2 µg/mL (≈ 4.08 µM)

CN(C)[C@@H]1C(O)=C(C(N)=O)C(=O)[C@@]2(O)C(O)=C3C(=O)c4c(O)c(NC(=O)CN5CCCC5)cc(F)c4C[C@H]3C[C@@H]12 [ERAVACYCLINE]
MIC (Staphylococcus aureus [6]): 0.015 to 4 µg/mL (≈ 0.0269 to 7.16 µM)
MIC (Klebsiella pneumoniae [7]): 0.03 to 16 µg/mL (≈ 0.0537 to 28.6 µM)
MIC (Pseudomonas aeruginosa [8]): 0.06 to 64 µg/mL

CC1(C)S[C@@H]2[C@H](NC(=O)[C@H](N)c3ccc(O)cc3)C(=O)N2[C@H]1C(=O)O [AMOXICILLIN]
MIC (Pseudomonas aeruginosa [9]): > 100 µM
MIC (Pseudomonas aeruginosa [10]): > 100 µM
MIC (Pseudomonas aeruginosa [11]): > 100 µM
MIC (Pseudomonas aeruginosa [12]): > 100 µM
MIC (Pseudomonas aeruginosa [13]): > 100 µM
MIC (Pseudomonas aeruginosa [14]): > 100 µM
MIC (Pseudomonas aeruginosa [15]): > 100 µM
MIC (Pseudomonas aeruginosa [16]): > 100 µM

CC[C@H]1OC(=O)[C@@](C)(F)C(=O)[C@H](C)[C@@H](O[C@@H]2O[C@H](C)C[C@H](N(C)C)[C@H]2O)[C@](C)(OC)C[C@@H](C)C(=O)[C@H](C)[C@@H]2N(CC#CCn3cc(-c4cccc(N)n4)nn3)C(=O)O[C@@]21C
MIC (Staphylococcus aureus [17]): 0.06 µg/mL (≈ 0.0713 µM)
MIC (Acinetobacter baumannii [18]): 2 µg/mL (≈ 2.38 µM)
MIC (Staphylococcus aureus [19]): 0.06 µg/mL (≈ 0.0713 µM)
MIC (Staphylococcus aureus [20]): 0.06 µg/mL (≈ 0.0713 µM)
MIC (Enterococcus faecalis [21]): 0.03 µg/mL (≈ 0.0356 µM)
MIC (Enterococcus faecalis [22]): 1 µg/mL (≈ 1.19 µM)
MIC (Streptococcus pneumoniae [23]): ≤ 0.03 µg/mL
MIC (Streptococcus pneumoniae [24]): ≤ 0.03 µg/mL
MIC (Pseudomonas aeruginosa [25]): 16 µg/mL (≈ 19 µM)

Cc1cc(=O)n(C)c2c3c4c(cc12)c(C)cc(=O)n4C(CN)CO3 (configuration not stated)
Drug uptake [26]: 1114 nmol
MIC (Staphylococcus aureus [17]): 0.03 to 0.5 µg/mL (≈ 0.0922 to 1.54 µM)
MIC (Staphylococcus aureus [27]): 0.03 to 0.5 µg/mL (≈ 0.0922 to 1.54 µM)
MIC (Escherichia coli [28]): 0.5 to 16 µg/mL (≈ 1.54 to 49.2 µM)
MIC (Escherichia coli [29]): 0.5 to 16 µg/mL (≈ 1.54 to 49.2 µM)
MIC (Escherichia coli [30]): 0.5 to 16 µg/mL (≈ 1.54 to 49.2 µM)
MIC (Escherichia coli [31]): 0.5 to 16 µg/mL (≈ 1.54 to 49.2 µM)
MIC (Escherichia coli [32]): 0.5 to 16 µg/mL (≈ 1.54 to 49.2 µM)
MIC (Escherichia coli [33]): 0.5 to 16 µg/mL (≈ 1.54 to 49.2 µM)
MIC (Escherichia coli [34]): 0.5 to 16 µg/mL (≈ 1.54 to 49.2 µM)
MIC (Escherichia coli [35]): 0.5 to 16 µg/mL (≈ 1.54 to 49.2 µM)
MIC (Klebsiella pneumoniae [36]): 1 to 8 µg/mL (≈ 3.07 to 24.6 µM)
MIC (Klebsiella pneumoniae [37]): 1 to 8 µg/mL (≈ 3.07 to 24.6 µM)
MIC (Klebsiella pneumoniae [38]): 1 to 8 µg/mL (≈ 3.07 to 24.6 µM)
MIC (Enterobacter cloacae [39]): 0.5 to 4 µg/mL (≈ 1.54 to 12.3 µM)
MIC (Enterobacter cloacae [40]): 0.5 to 4 µg/mL (≈ 1.54 to 12.3 µM)
MIC (Enterobacter cloacae [41]): 0.5 to 4 µg/mL (≈ 1.54 to 12.3 µM)
MIC (Acinetobacter baumannii [18]): 2 to 16 µg/mL (≈ 6.15 to 49.2 µM)
MIC (Acinetobacter baumannii [42]): 2 to 16 µg/mL (≈ 6.15 to 49.2 µM)
MIC (Acinetobacter baumannii [43]): 2 to 16 µg/mL (≈ 6.15 to 49.2 µM)
MIC (Acinetobacter baumannii [44]): 2 to 16 µg/mL (≈ 6.15 to 49.2 µM)
MIC (Acinetobacter baumannii [45]): 2 to 16 µg/mL (≈ 6.15 to 49.2 µM)
MIC (Acinetobacter baumannii [46]): 2 to 16 µg/mL (≈ 6.15 to 49.2 µM)
MIC (Pseudomonas aeruginosa [47]): 16 µg/mL (≈ 49.2 µM)

CCCCCC[C@H](CCCCC[C@@H](O)C(N)=O)OC(=O)[C@@H]1CC(F)=CN1C(=O)c1ccccc1O
IC50 (Pseudomonas aeruginosa [48]): 19 nM

— ChEMBL document CHEMBL4321783, “Recent Progress in Natural-Product-Inspired Programs Aimed To Address Antibiotic Resistance and Tolerance” (J Med Chem, 2019)
